Assays:
Test in all cases: Weeding effect in post-emergence stage
Assay type in all cases: in vivo
[1] = test system: Eleusine indica; conditions: for Weeding effect in post-emergence stage, Eleusine indica: level of fresh weight growth control rate; for Weeding effect in post-emergence stage, Eleusine indica (level): fresh weight control rate level
Method in brief: (§1)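 Compound, dissolved in acetone and diluted in water with Tween 80 plus methyl oleate EC (1.5 liter/ha), is sprayed onto 2-3 leaf potted plants. Rates span 7.5–500 g/ha. After 3 weeks of greenhouse culture, weeding effect is counted as the mean of triplicates.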

[2] = test system: Digitaria sanguinalis; conditions: for Weeding effect in post-emergence stage, Digitaria sanguinalis: level of fresh weight growth control rate; for Weeding effect in post-emergence stage, Digitaria sanguinalis (level): fresh weight control rate level
Method in brief: as §1

[3] = test system: Setaria viridis; conditions: for Weeding effect in post-emergence stage, Setaria viridis: level of fresh weight growth control rate; for Weeding effect in post-emergence stage, Setaria viridis (level): fresh weight control rate level
Method in brief: as §1

[4] = test system: Alopecurus japonicus; conditions: for Weeding effect in post-emergence stage, Alopecurus japonicus: level of fresh weight growth control rate; for Weeding effect in post-emergence stage, Alopecurus japonicus (level): fresh weight control rate level
Method in brief: as §1

[5] = test system: Abutilon theophrasti; conditions: for Weeding effect in post-emergence stage, Abutilon theophrasti: level of fresh weight growth control rate; for Weeding effect in post-emergence stage, Abutilon theophrasti (level): fresh weight control rate level
Method in brief: as §1

[6] = test system: Echinochloa crusgalli; conditions: for Weeding effect in post-emergence stage, Echinochloa crusgalli: level of fresh weight growth control rate; for Weeding effect in post-emergence stage, Echinochloa crusgalli (level): fresh weight control rate level
Method in brief: as §1

| Structure (SMILES) | Weeding effect in post-emergence stage, Eleusine indica ([1]; Dose 15 g/ha) | Weeding effect in post-emergence stage, Digitaria sanguinalis ([2]; Dose 15 g/ha) | Weeding effect in post-emergence stage, Setaria viridis ([3]; Dose 15 g/ha) | Weeding effect in post-emergence stage, Alopecurus japonicus ([4]; Dose 15 g/ha) | Weeding effect in post-emergence stage, Abutilon theophrasti ([5]; Dose 15 g/ha) | Weeding effect in post-emergence stage, Echinochloa crusgalli ([6]; Dose 15 g/ha) | Weeding effect in post-emergence stage, Eleusine indica (level) ([1]; Dose 15 g/ha) | Weeding effect in post-emergence stage, Digitaria sanguinalis (level) ([2]; Dose 15 g/ha) | Weeding effect in post-emergence stage, Setaria viridis (level) ([3]; Dose 15 g/ha) | Weeding effect in post-emergence stage, Alopecurus japonicus (level) ([4]; Dose 15 g/ha) | Weeding effect in post-emergence stage, Abutilon theophrasti (level) ([5]; Dose 15 g/ha) | Weeding effect in post-emergence stage, Echinochloa crusgalli (level) ([6]; Dose 15 g/ha) | further results |
| --- | --- | --- | --- | --- | --- | --- | --- | --- | --- | --- | --- | --- | --- |
| CC(O/N=C/c1cc(-n2c(=O)cc(C(F)(F)F)n(C)c2=O)c(F)cc1Cl)C(=O)ON1C(=O)CCC1=O (stereo not drawn) [Compound 263] |  |  |  |  |  |  |  |  |  |  |  |  | Weeding effect in post-emergence stage, Eleusine indica ([1]; Dose 60 g/ha): 5 (Level 5: growth control rate is above 85%); Weeding effect in post-emergence stage, Digitaria sanguinalis ([2]; Dose 60 g/ha): 5 (Level 5: growth control rate is above 85%); Weeding effect in post-emergence stage, Setaria viridis ([3]; Dose 60 g/ha): 5 (Level 5: growth control rate is above 85%); Weeding effect in post-emergence stage, Alopecurus japonicus ([4]; Dose 60 g/ha): 5 (Level 5: growth control rate is above 85%); Weeding effect in post-emergence stage, Abutilon theophrasti ([5]; Dose 60 g/ha): 5 (Level 5: growth control rate is above 85%); Weeding effect in post-emergence stage, Echinochloa crusgalli ([6]; Dose 60 g/ha): 5 (Level 5: growth control rate is above 85%) |
| C[C@@H](O/N=C/c1cc(-n2c(=O)n(C)c(=S)n(C)c2=O)c(F)cc1Cl)C(=O)OCC1CCCO1 (stereo partly drawn) [24(R)] | 5 (Level 5: growth control rate is above 85%) | 5 (Level 5: growth control rate is above 85%) | 5 (Level 5: growth control rate is above 85%) | 5 (Level 5: growth control rate is above 85%) | 5 (Level 5: growth control rate is above 85%) | 5 (Level 5: growth control rate is above 85%) |  |  |  |  |  |  |  |
| COC(=O)C(OC)O/N=C/c1cc(-n2c(=O)cc(C(F)(F)F)n(C(OC)C(=O)OC)c2=O)c(F)cc1Cl (stereo not drawn) [Compound 493] |  |  |  |  |  |  | 5 (Level 5: growth control rate is above 85%) | 5 (Level 5: growth control rate is above 85%) | 5 (Level 5: growth control rate is above 85%) | 5 (Level 5: growth control rate is above 85%) | 5 (Level 5: growth control rate is above 85%) | 5 (Level 5: growth control rate is above 85%) |  |
| CSCOC(=O)[C@@H](C)O/N=C/c1cc(-n2c(=O)cc(C(F)(F)F)n(C)c2=O)c(F)cc1Cl [233(R)] | 5 (Level 5: growth control rate is above 85%) | 5 (Level 5: growth control rate is above 85%) | 5 (Level 5: growth control rate is above 85%) | 5 (Level 5: growth control rate is above 85%) | 5 (Level 5: growth control rate is above 85%) | 5 (Level 5: growth control rate is above 85%) |  |  |  |  |  |  |  |
| CCN(CC)C(=O)[C@@H](C)O/N=C/c1cc(-n2c(=O)cc(C(F)(F)F)n(C)c2=O)c(F)cc1Cl [502(R)] |  |  |  |  |  |  | 5 (Level 5: growth control rate is above 85%) | 5 (Level 5: growth control rate is above 85%) | 5 (Level 5: growth control rate is above 85%) | 5 (Level 5: growth control rate is above 85%) | 5 (Level 5: growth control rate is above 85%) | 5 (Level 5: growth control rate is above 85%) |  |
| CCCCCOC(=O)C(C)O/N=C/c1cc(-n2c(=O)cc(C(F)(F)F)n(C)c2=O)c(F)cc1Cl (racemic) [Compound 203] | 5 (Level 5: growth control rate is above 85%) | 5 (Level 5: growth control rate is above 85%) | 5 (Level 5: growth control rate is above 85%) | 5 (Level 5: growth control rate is above 85%) | 5 (Level 5: growth control rate is above 85%) | 5 (Level 5: growth control rate is above 85%) |  |  |  |  |  |  |  |
| COC(=O)[C@@H](C)O/N=C/c1cc(-n2c(=O)n(C)c(=S)n(C)c2=O)c(F)cc1C#N [87(R)] | 5 (Level 5: growth control rate is above 85%) | 5 (Level 5: growth control rate is above 85%) | 5 (Level 5: growth control rate is above 85%) | 5 (Level 5: growth control rate is above 85%) | 5 (Level 5: growth control rate is above 85%) | 5 (Level 5: growth control rate is above 85%) |  |  |  |  |  |  |  |
| CC(O/N=C/c1cc(-n2c(=O)n(C)c(=S)n(C)c2=O)c(F)cc1Cl)C(=O)OCc1ccncc1 (stereo not drawn) [Compound 60] | 5 (Level 5: growth control rate is above 85%) | 5 (Level 5: growth control rate is above 85%) | 5 (Level 5: growth control rate is above 85%) | 4 (Level 4: growth control rate is greater than or equal to 60% and less than 85%) | 5 (Level 5: growth control rate is above 85%) | 5 (Level 5: growth control rate is above 85%) |  |  |  |  |  |  |  |
| CC(O/N=C/c1cc(-n2c(=O)cc(C(F)(F)F)n(C)c2=O)c(F)cc1Cl)C(=O)OCc1ccccn1 (stereo not drawn) [Compound 301] | 5 (Level 5: growth control rate is above 85%) | 5 (Level 5: growth control rate is above 85%) | 5 (Level 5: growth control rate is above 85%) | 5 (Level 5: growth control rate is above 85%) | 5 (Level 5: growth control rate is above 85%) | 5 (Level 5: growth control rate is above 85%) |  |  |  |  |  |  |  |
| COC(=O)C(C)ON=Cc1nc(-n2c(=O)n(C)c(=S)n(C)c2=O)c(F)cc1Cl (stereo not drawn) [Compound 511] |  |  |  |  |  |  | 5 (Level 5: growth control rate is above 85%) | 5 (Level 5: growth control rate is above 85%) | 5 (Level 5: growth control rate is above 85%) | 5 (Level 5: growth control rate is above 85%) | 5 (Level 5: growth control rate is above 85%) | 5 (Level 5: growth control rate is above 85%) |  |
| CC(C#N)OC(=O)C(C)O/N=C/c1cc(-n2c(=O)cc(C(F)(F)F)n(C)c2=O)c(F)cc1Cl (stereo not drawn) [Compound 443] |  |  |  |  |  |  | 5 (Level 5: growth control rate is above 85%) | 5 (Level 5: growth control rate is above 85%) | 5 (Level 5: growth control rate is above 85%) | 5 (Level 5: growth control rate is above 85%) | 5 (Level 5: growth control rate is above 85%) | 5 (Level 5: growth control rate is above 85%) |  |
